± gives the uncertainty stated by the source.
Test: xn = mol fraction of the nth substance listed
Settings: 101 kPa

CCCC[n+]1ccn(C)c1.CS(=O)(=O)[O-] + O
Settings	electrical conductivity [S/m]	viscosity [mPa·s]
298.15 K, x2 = 0.6542	–	31.9 ± 1.5
298.15 K, x2 = 0.7014	–	25.2 ± 1.2
298.15 K, x2 = 0.7494	–	19.09 ± 0.9
298.15 K, x2 = 0.796	1.23 ± 0.061	–
298.15 K, x2 = 0.951	4.06 ± 0.2	–
298.15 K, x2 = 0.975	–	1.643 ± 0.077
299.15 K, x1 = 0.008	2.11 ± 0.11	–
299.15 K, x2 = 0.892	2.96 ± 0.15	–
299.15 K, x2 = 0.951	4.12 ± 0.21	–
300.15 K, x1 = 0.004	1.24 ± 0.062	–
301.15 K, x2 = 0.861	2.53 ± 0.13	–
302.15 K, x2 = 0.861	2.61 ± 0.13	–
305.15 K, x1 = 0.004	1.37 ± 0.068	–
305.15 K, x2 = 0.861	2.84 ± 0.14	–
306.15 K, x1 = 0.004	1.4 ± 0.07	–
307.15 K, x1 = 0.008	2.51 ± 0.13	–
308.15 K, x1 = 0.019	4.06 ± 0.2	–
308.15 K, x2 = 0.861	3.08 ± 0.15	–
308.15 K, x2 = 0.968	4.94 ± 0.25	–
309.15 K, x2 = 0.968	5.03 ± 0.25	–
310.15 K, x1 = 0.019	4.22 ± 0.21	–
310.15 K, x2 = 0.861	3.25 ± 0.16	–
310.15 K, x2 = 0.892	4.03 ± 0.2	–
310.15 K, x2 = 0.968	5.11 ± 0.26	–
311.15 K, x2 = 0.861	3.35 ± 0.17	–
313.15 K, x2 = 0.892	4.42 ± 0.22	–
313.15 K, x2 = 0.9004	–	3.71 ± 0.2
315.15 K, x2 = 0.968	5.63 ± 0.28	–
316.15 K, x2 = 0.951	6.44 ± 0.32	–
317.15 K, x1 = 0.004	1.7 ± 0.085	–
317.15 K, x2 = 0.951	6.52 ± 0.33	–
317.15 K, x2 = 0.968	5.83 ± 0.29	–
318.15 K, x2 = 0.929	5.89 ± 0.29	–
319.15 K, x2 = 0.861	4.14 ± 0.21	–
319.15 K, x2 = 0.968	6.08 ± 0.3	–
320.15 K, x1 = 0.004	1.79 ± 0.09	–
320.15 K, x1 = 0.019	5.15 ± 0.26	–
320.15 K, x2 = 0.892	5.23 ± 0.26	–
320.15 K, x2 = 0.968	6.17 ± 0.31	–
321.15 K, x2 = 0.968	6.3 ± 0.32	–
322.15 K, x2 = 0.892	5.48 ± 0.27	–
322.15 K, x2 = 0.929	6.42 ± 0.32	–
323.15 K, x2 = 0.8015	–	6.16 ± 0.43
323.15 K, x2 = 0.9503	–	1.503 ± 0.071
323.15 K, x2 = 0.951	7.08 ± 0.35	–
324.15 K, x1 = 0.004	1.91 ± 0.096	–
324.15 K, x1 = 0.008	3.39 ± 0.17	–
324.15 K, x1 = 0.019	5.48 ± 0.27	–
324.15 K, x2 = 0.892	5.72 ± 0.29	–
325.15 K, x1 = 0.008	3.45 ± 0.17	–
325.15 K, x1 = 0.019	5.57 ± 0.28	–
325.15 K, x2 = 0.929	6.93 ± 0.35	–
326.15 K, x1 = 0.004	1.98 ± 0.099	–
326.15 K, x2 = 0.929	6.92 ± 0.35	–
326.15 K, x2 = 0.968	6.88 ± 0.34	–
327.15 K, x2 = 0.861	5.02 ± 0.25	–
327.15 K, x2 = 0.929	7.05 ± 0.35	–
328.15 K, x1 = 0.019	5.74 ± 0.29	–
328.15 K, x2 = 0.951	7.6 ± 0.38	–
329.15 K, x2 = 0.968	7.25 ± 0.36	–
331.15 K, x1 = 0.019	6.08 ± 0.3	–
331.15 K, x2 = 0.861	5.49 ± 0.28	–
332.15 K, x2 = 0.929	7.74 ± 0.39	–
332.15 K, x2 = 0.951	8.16 ± 0.41	–
333.15 K, x2 = 0.7014	–	8.05 ± 0.39
333.15 K, x2 = 0.8015	–	4.67 ± 0.22
333.15 K, x2 = 0.9004	–	2.3 ± 0.11
333.15 K, x2 = 0.9503	–	1.24 ± 0.058
333.15 K, x2 = 0.968	7.66 ± 0.38	–
334.15 K, x2 = 0.968	7.78 ± 0.39	–
335.15 K, x1 = 0.004	2.24 ± 0.11	–
336.15 K, x1 = 0.004	2.27 ± 0.11	–
336.15 K, x2 = 0.951	8.7 ± 0.43	–
337.15 K, x2 = 0.861	6.31 ± 0.32	–
337.15 K, x2 = 0.929	8.44 ± 0.42	–
338.15 K, x1 = 0.019	6.52 ± 0.33	–
338.15 K, x2 = 0.861	6.33 ± 0.32	–
338.15 K, x2 = 0.951	8.96 ± 0.45	–
339.15 K, x2 = 0.968	8.41 ± 0.42	–
341.15 K, x2 = 0.892	7.89 ± 0.4	–
342.15 K, x1 = 0.004	2.44 ± 0.12	–
342.15 K, x2 = 0.861	6.89 ± 0.34	–
342.15 K, x2 = 0.892	7.96 ± 0.4	–
343.15 K, x1 = 0.004	2.46 ± 0.12	–
343.15 K, x2 = 0.6542	–	7.44 ± 0.37
343.15 K, x2 = 0.8521	–	2.67 ± 0.13
343.15 K, x2 = 0.892	8.05 ± 0.4	–
344.15 K, x2 = 0.929	9.45 ± 0.47	–
345.15 K, x1 = 0.004	2.53 ± 0.13	–
345.15 K, x2 = 0.951	10 ± 0.5	–
345.15 K, x2 = 0.968	8.98 ± 0.45	–
346.15 K, x1 = 0.008	4.56 ± 0.23	–
346.15 K, x2 = 0.951	10.1 ± 0.51	–
347.15 K, x2 = 0.861	7.63 ± 0.38	–
347.15 K, x2 = 0.892	8.62 ± 0.43	–
348.15 K, x1 = 0.004	2.61 ± 0.13	–
348.15 K, x2 = 0.892	8.76 ± 0.44	–
349.15 K, x2 = 0.861	7.79 ± 0.39	–
349.15 K, x2 = 0.951	10.6 ± 0.53	–
350.15 K, x1 = 0.019	7.75 ± 0.39	–
352.15 K, x1 = 0.019	7.98 ± 0.4	–
352.15 K, x2 = 0.951	10.9 ± 0.54	–
353.15 K, x1 = 0.004	2.76 ± 0.14	–
353.15 K, x2 = 0.861	8.33 ± 0.42	–
353.15 K, x2 = 0.951	11.1 ± 0.56	–
354.15 K, x2 = 0.861	8.44 ± 0.42	–
355.15 K, x1 = 0.004	2.83 ± 0.14	–
355.15 K, x2 = 0.968	10.3 ± 0.52	–
356.15 K, x1 = 0.004	2.82 ± 0.14	–
357.15 K, x1 = 0.004	2.86 ± 0.14	–
357.15 K, x2 = 0.929	11.3 ± 0.56	–
357.15 K, x2 = 0.951	11.3 ± 0.57	–
358.15 K, x2 = 0.892	10.1 ± 0.51	–

Reference: the CheMixHub ionic liquid set
